Data: US5618665A, “Enzymatic fluorometric assay for adenylate cyclase” (Regents of the University of Minnesota, priority 1994, dated 1997)

Columns and labels:
[1] = tested on: adenylate cyclase; experiment: Radioactive adenylate cyclase assay (modified Salomon, alpha-32P-ATP), rabbit ventricular membranes; assay type: biochemical, rabbit (New Zealand white); settings: Iso 10^-6 M; GppNHp 10^-4 M; NaF 10^-2 M; n = 5
Experimental: (§1) Ventricular membrane preparations were prepared from five male New Zealand white rabbits (weight 2.4 kg; W.O.R.K., Philomith, Oreg.) sacrificed by cervical concussion and immediate incision of the heart as previously described. Briefly, hearts were placed in ice-cold SET buffer (0.25M sucrose, 0.1 mM EDTA, 5.0 mM Tris HCl, pH 7.4). Portions (1-2 g) from the ventricular apex were minced and then homogenized in ice-cold SET buffer (1/10, w/v). The homogenate was filtered through a Nitex filter (three layers) (Tetko, Los Angeles, Calif.) and then centrifuged for 20 min. at 1000×g. The pellet was resuspended and centrifuged three more times. The final pellet was resuspended in SET buffer (1.5 mg protein/ml) and stored at -70° C. until enzyme activity was measured.
A volume of 1.0 μl of either H2 O, NaF, guanylyl-5'-imidodiphosphate (GppNHp), isoproterenol, or isoproterenol+GppNHp were added to each of five reaction tubes and maintained at 0° C. […] Finally 25 μl of membrane suspension ([…]) were added to each tube and the reaction was initiated by placing the tubes in a water bath at 37° C. After 30 minutes, the reaction was terminated by the addition of 300 μl of a stopping solution which contained 0.34 HCl and ^3 H-cAMP, 10,000-20,000 cpm.
To generate the graph depicted in FIG. 2, 250 μl portions of reaction mixture A and membrane were used and 50 μl samples were removed from the 37° C. bath every 10 minutes, and stopped with 300 μl stopping solution. The assay tubes were heated at 95° C. for 5 minutes. ^32 P-cAMP was isolated using Dowex-alumina chromatography. Recovery, as assessed by ^3 H-cAMP, was 80-95%. All assays were conducted in triplicate. The time course of adenylate cyclase activity (n=5 different rabbit ventricular membrane preparations) is depicted in FIG. 1. Basal AC and agonist stimulated (0.1 mM GppNHp, 0.1 mM) AC are compared. The activity shown is (isoproterenol+GppNHp-stimulated AC activity) minus (GppNHp-stimulated activity). […]

[2] = tested on: adenylate cyclase; experiment: Adenylate cyclase activity of rabbit cardiac membranes by enzymatic fluorometric assay (ATP-ADP cycling), radioimmunoassay and Salomon's method; assay type: biochemical; settings: isoproterenol 10^-7 and 10^-6 M; NaF 10^-2 M; GppNHp 10^-4 M; carbachol 10^-6 M; adenosine 10^-3 M; three methods
Experimental: Adenylate cyclase activities of six different rabbit cardiac membranes under basal and drug treated conditions were assessed using the fluorometric method of the present invention, radioimmunoassay and original [alpha-^32 P] ATP method developed by Salomon. The first part of the non-radioactive fluorescent technique for measuring adenylate cyclase activity is similar to the method described in Example 2 except that 3-isobutyl-1-methylxanthine (IBMX), rather than theophylline, was used to inhibit phosphodiesterase activity. Furthermore, a series of ATP-ADP enzyme-cycling reactions was used to amplify the cAMP signal, rather then the AMP stimulation of glycogen phosphorylase a utilized in previous examples. Use of the ATP-ADP enzymatic cycling amplification step can lengthen the assay duration, depending upon the desired assay sensitivity.
A volume of 1.0 μl of either H2 O, isoproterenol, NaF, guanylyl-5'-imidodiphosphate (GppNHp), carbachol, and adenosine was added to each of six reaction tubes on ice. Next, 25 μl of cyclase mix (100 mM Tris-acetate, pH 7.4; 4.2 mM KCl; 10 mM MgCl2; 20 mM phosphoenolpyruvate; 2 mM ATP; 20 μM GTP; 2 mM dithiothreitol; 0.04% bovine serum albumin; 0.2 mM 3-isobutyl-1-methylxanthine (IBMX); 100 μg/ml pyruvate kinase) was added to each reaction tube. The stored membrane was diluted with SET buffer in a concentration of 1.5 mg of protein/ml. Finally, 25 μl of membrane suspension, which contained 37.5 μg of protein, was added to each tube, and the reaction was initiated by placing the tubes in a water bath maintained at 37° C. After 30 minutes, the reaction was terminated by heating at 90° C. for 5 minutes. […] Then, 25 μl of cyclase mix and 25 μl of boiled membrane preparation were added to each tube. After 30 minutes, the reaction was terminated by heating at 90° C. for 5 minutes.
A volume of 5 μl of reaction of product from Part A was transferred to Pyrex® tubes. For external cAMP standard, a same volume of known amount of cAMP was also added to assay tubes. Newly synthesized cAMP was measured using the following enzymatic fluorometric assay.
1. A volume of 25 μl of "cleaning" reaction mix (100 mM Tris HCl, pH 8.0; 2 mM MgCl2; 2 units/ml apyrase; 2.5 units/ml 5'-nucleotidase; 50 μg/ml adenosine deaminase; 20 units/ml alkaline phosphatase) was added to each assay tube. The mixture was incubated at 37° C. for 30 minutes. Enzymes were then destroyed by heating for 10 minutes at 90° C.
2. A volume of 25 μl of a phosphodiesterase-containing reaction mix (100 mM Tris-HCl pH 8.0; 2 mM MgCl2; 0.01% bovine serum albumin; 60 μg/m; phosphodiesterase) was added to each assay tube from Step 1. After 60 minutes at 37° C., the assay tubes were heated at 90° C. for 5 minutes.
3. A volume of 25 μl of myokinase reaction mix (100 mM Tris-HCl, pH 8.0; 2 mM MgCl2; 225 mM KCl; 200 nM ATP; 8 mM phosphoenolpyruvate; 2 mM dithiothreitol; 0.01% bovine serum albumin; 24 μg/ml myokinase; 50 μg/ml pyruvate kinase) was added to the assay tubes from Step 2. The reactions were incubated at 37° C. for 2 hours.
4. […]
5. […] After 15 minutes at room temperature, the final concentration of NADPH was measured using a fluorometer (Optical Technology Devices, Inc., New York). The fluorometer was set such that a reading of 1 fluorometric unit was equivalent to 100 pmol of NADPH in 900 μl of buffer (50 mM Tris-HCl, pH 8.0). […]

[3] = tested on: adenylate cyclase; experiment: Fluorometric (non-radioactive) adenylate cyclase assay, rabbit ventricular membranes; assay type: biochemical, rabbit (New Zealand white); settings: NaF 10^-2 M; for Agonist-stimulated adenylate cyclase activity, fluorescent assay: Iso 10^-6 M, GppNHp 10^-4 M, n = 5; for stimulated activity, reduced assay volume: membrane suspension reduced from 25 μl to 5 μl, isoproterenol 10^-6 M
Experimental: as §1
A volume of 1.0 μl of either H2 O, NaF, guanylyl -5'-imidodiphosphate (GppNHp), isoproterenol, or isoproterenol+GppNHp was added to each of five reaction tubes and maintained at 0° C. Next, 25 μl of reaction mixture B (tris Acetate 100 mM, pH 7.4; KCl 20 mM; MgCl2 10.0 mM; phosphoenolpyruvate 20 mM; ATP 2.0 mM; GTP 0.02 mM; dithiothreitol 2.0 mM; bovine serum albumin 0.04%; theophylline 0.2 mM; pyruvate kinase 1.0 mg/ml) were added to each reaction tube. Finally, 25 μl of membrane suspension (40 to 45 μg protein) were added to each tube and the reaction was initiated by placing the tubes in a water bath at 37° C. After 30 minutes at 37° C., the reaction was stopped by the addition of 50 μl of 50 mM NaOH. The reaction mixture was heated for 5 minutes at 95° C.
1. A volume of 20-40 μl of reaction product from Part A was added to 100 μl of cleaning reaction mix (Tris-HCl 50 mM, pH 8.0; MgCl2 5 mM; CaCl2, 2 mM; 5'-nucleotidase 0.025 units/ml; apyrase 0.02 units/ml; adenosine deaminase 0.1 mg/ml). After 30 minutes at 37° C., the reaction was terminated by heating it at 95° C. for 5 minutes.
2. […] After 60 minutes at 37° C., 600 μl of 2-amino-2-methyl-1-propanol (AMP2) 50 mM, pH 9.9 was added to the reaction mix and the final concentration of NADPH was measured fluorometrically.
Although the basal activity is nearly 3 times higher in the nonradioactive method, the "fold" stimulation is similar for both receptor-mediated agonists (isoproterenol±GppNHp) as well by NaF, which directly stimulates adenylate cyclase.
The non-radioactive assay of Example 2 is at least 5 times more sensitive than the modified Salomon radioactive assay of Example 1. In Table 3, 5 μl of membrane preparation were used to measure adenylate cyclase activity in the non-radioactivity assay compared to 25 μl with the radioactive preparations. In a separate experiment, the volume of membrane suspension was reduced from 25 μl to 5 μl. By proportionally reducing the assay volume size, no difference in basal (58.4±3.9), isoproterenol (10^-6 M) (128±7.6) or NaF (10^-2 M) (331.9±42.8) stimulated activity was observed when results were compared to larger assay volumes present. EXAMPLE 5.

[4] = tested on: adenylate cyclase; experiment: Effect of theophylline on basal and isoproterenol-stimulated adenylate cyclase activity; assay type: biochemical; settings: for Isoproterenol Stimulated adenylate cyclase activity / Fold Increase, isoproterenol stimulated: isoproterenol 10^-6 M; for Isoproterenol Stimulated adenylate cyclase activity / Basal (no isoproterenol) adenylate cyclase activity: n = 5; for Fold Increase, isoproterenol stimulated / Fold Increase, basal (no isoproterenol): vs control
Excerpt: To investigate the effects of theophylline on basal adenylate cyclase activity, increasing concentrations of theophylline were studied (Table 2).

[5] = tested on: glycogen phosphorylase a; experiment: Removal of AMP by the cleaning reactions (glycogen phosphorylase a activity, NADPH fluorescence); assay type: biochemical; settings: 25° C.
Experimental: AMP was incubated for 60 min at 37° C. with 50 μl of either buffer (100 mM Tris-HCl, pH 8.0) or a cleaning reaction mixture containing 100 mM Tris-HCl, pH 8.0; 5 mM MgCl2. 2 mM CaCl2, 0.02 units/ml apyrase; 0.025 units/ml 5'-nucleotidase and 0.1 mg/ml adenosine deaminase.

## [F-].[Na+] [NaF, Sodium Fluoride]
[1]
  Agonist-stimulated adenylate cyclase activity, radioactive assay: 106.2 ± 3.5 pmoles of cAMP/mg/min
[2]
  effect on cAMP production: increased production
[3]
  Agonist-stimulated adenylate cyclase activity, fluorescent assay: 346.7 ± 15.9 pmoles of cAMP/mg/min
  stimulated activity, reduced assay volume: 331.9±42.8

## C[N+](C)(C)CCOC(N)=O [carbachol]
[2]
  effect on cAMP production: inhibited

## Cn1c(=O)c2[nH]cnc2n(C)c1=O [theophylline]
[4]; theophylline 10 μM
  Isoproterenol Stimulated adenylate cyclase activity: 85.58 ± 5.56 pmol/mg/min
  Fold Increase, isoproterenol stimulated: 1.65 fold
  Basal (no isoproterenol) adenylate cyclase activity: 44.72 ± 4.61 pmol/mg/min
  Fold Increase, basal (no isoproterenol): 1.46 fold
[4]; theophylline 50 μM
  Isoproterenol Stimulated adenylate cyclase activity: 93.02 ± 3.55 pmol/mg/min
  Fold Increase, isoproterenol stimulated: 1.80 fold
  Basal (no isoproterenol) adenylate cyclase activity: 44.63 ± 5.93 pmol/mg/min
  Fold Increase, basal (no isoproterenol): 1.46 fold
[4]; theophylline 100 μM
  Isoproterenol Stimulated adenylate cyclase activity: 104.21 ± 3.50 pmol/mg/min
  Fold Increase, isoproterenol stimulated: 2.01 fold
  Basal (no isoproterenol) adenylate cyclase activity: 59.94 ± 3.63 pmol/mg/min
  Fold Increase, basal (no isoproterenol): 1.91 fold
[4]; theophylline 500 μM
  Isoproterenol Stimulated adenylate cyclase activity: 102.67 ± 2.86 pmol/mg/min
  Fold Increase, isoproterenol stimulated: 1.98 fold
  Basal (no isoproterenol) adenylate cyclase activity: 53.82 ± 4.37 pmol/mg/min
  Fold Increase, basal (no isoproterenol): 1.75 fold
[4]; theophylline 100-500 μM
  basal activity is increased: approximately 100%
[4]; theophylline > 100 μM
  increase in basal activity: no significant increase in basal activity was observed

## Nc1nc2c(ncn2[C@@H]2O[C@H](COP(=O)(O)OP(=O)(O)NP(=O)(O)O)[C@@H](O)[C@H]2O)c(=O)[nH]1 [GppNHp, guanylyl-5'-imidodiphosphate]
[1]
  Agonist-stimulated adenylate cyclase activity, radioactive assay: 64.9 ± 3.3 pmoles of cAMP/mg/min
[2]
  effect on cAMP production: increased production
[3]
  Agonist-stimulated adenylate cyclase activity, fluorescent assay: 185.3 ± 13.7 pmoles of cAMP/mg/min

## adenosine 2'- and 3'-monophosphate [AMP]
[5]; in the presence of the cleaning reaction mixture
  glycogen phosphorylase a activity: remains similar to the control buffer values
[5]; without the cleaning step
  glycogen phosphorylase a activity: markedly stimulated

## Nc1ncnc2c1ncn2[C@@H]1O[C@H](CO)[C@@H](O)[C@H]1O [adenosine]
[2]
  effect on cAMP production: inhibited

## CC(C)NCC(O)c1ccc(O)c(O)c1 (centres unmarked) [isoproterenol]
[1]
  Agonist-stimulated adenylate cyclase activity, radioactive assay: 38.3 ± 2.3 pmoles of cAMP/mg/min
[2]
  effect on cAMP production: increased cAMP production, in a concentration-dependent manner
[3]
  Agonist-stimulated adenylate cyclase activity, fluorescent assay: 110.0 ± 3.3 pmoles of cAMP/mg/min
  stimulated activity, reduced assay volume: 128±7.6
[4]; at a given concentration of isoproterenol, in the presence of theophylline
  "fold" stimulation (agonist-stimulated activity/basal activity) of adenylate cyclase activity: constant
[4]; control (no theophylline)
  Isoproterenol Stimulated adenylate cyclase activity: 51.73 ± 10.47 pmol/mg/min
